Key:
[1] = system: Pseudomonas putida; test: Kinetic inactivation against mandelate racemase from Pseudomonas putida ATCC 12633
[2] = system: Pseudomonas putida; test: Kinetic inactivation against mandelate racemase from Pseudomonas putida ATCC 12633 in a solution of D2O

O=C(O)[C@@H](O)c1ccccc1
K inact [1]: 0.28 min⁻¹
K inact [2]: 0.2 min⁻¹

Reference: ChEMBL document CHEMBL1126365, “Mechanism-based inactivation of mandelate racemase by propargylglycolate” (Bioorg Med Chem Lett, 1992)
